# Source: patent US20080255090A1, “Ceratamines A and B, and Analogues, Syntheses and Pharmaceutical Compositions Thereof” (THE UNIVERSITY OF BRITISH COLUMBIA, priority 2003, published 2008)
# Tested on: mitotic arrest
# Assay: cell-based ELICA assay that detects mitotic arrest (Roberge et al. 2000)
# Conditions: cell-based ELICA assay of Roberge et al. (2000) Cancer Res. 60:5052
# Excerpt: As part of a program to discover new antimitotic natural products, extracts of marine invertebrates are screened in a cell-based assay that detects mitotic arrest (Roberge, M. et al. (2000) Cancer Res. 60:5052). […] The compounds described below, their salts, prodrugs and pharmaceutical compositions thereof are all contemplated within the scope of this invention.
# Methods suitable for assaying antimitotic activity of compounds of this invention or compounds used as precursors, may be based on any of a variety of known methodologies including microscopic examination of cells to determine if they are arrested in mitosis. Particularly useful methods employ antibodies specific for mitotic cells, such as the method described in the international patent application published under WO 99/15157 or the assays described in WO 01/38339 and in Roberge et al. (2000) Cancer Res. 60:5052. Assays will typically employ cells which regularly divide in culture (e.g. cancer cells). […]
# Immunological methods useful for determination of mitotic cells in an assay include any method for determining antibody-antigen binding, including: immunocytochemistry (e.g. immunofluorescence), flow cytometry, immunoblotting, and ELISA, including those described in Vincent, I. et al. [supra]. High throughput testing of samples may be readily achieved by use of the ELISA or the ELICA assays described in WO 01/38339. […]
"IC50 (read-out: IC50, antimitotic activity in the cell-based ELICA assay)","IC50, antimitotic activity in the cell-based ELICA assay",Compound
10 µg/mL,–,"CNc1nc2ccn(C)c(=O)c(Cc3cc(Br)c(OC)c(Br)c3)c-2n1 [Heterocycle 1, ceratamine A]"
–,10 µg/mL,ceratamine B [Heterocycle 2]
